Data set [1] relates to infarct size caused by ischemia and reperfusion of the heart. The settings on record: rabbits, cited from earlier work.
Data set [2] concerns colitis. The note with it: rats, trinitrobenzene sulfonic acid induced colitis, distal colon; cited from earlier work.
Data set [3] concerns the target T1, PARP-1 enzyme (Homo sapiens, UniProt P09874).
T1 construct: made in house
Put plainly: In vitro Scintillation Proximity Assay (SPA) for PARP-1 inhibitory activity. The format is biochemical. The settings on record: nicked DNA activated PARP-1, [3H]-NAD+, biotinylated histones; read-out: In vitro SPA pIC50 (converted). Here is the method:
Pharmacological Example In Vitro Scintillation Proximity Assay (SPA) for PARP-1 Inhibitory Activity
Compounds of the present invention were tested in an in vitro assay based on SPA technology (proprietary to Amersham Pharmacia Biotech).
In principle, the assay relies upon the well established SPA technology for the detection of poly(ADP-ribosyl)ation of biotinylated target proteins, i.e histones. This ribosylation is induced using nicked DNA activated PARP-1 enzyme and [^3H]-nicotinamide adenine dinucleotide ([^3H]-NAD^+) as ADP-ribosyl donor.
As inducer of PARP-1 enzyme activity, nicked DNA was prepared. For this, 25 mg of DNA (supplier: Sigma) was dissolved in 25 ml DNAse buffer (10 mM Tris-HCl, pH 7.4; 0.5 mg/ml Bovine Serum Albumine (BSA); 5 mM MgCl2.6H2O and 1 mM KCl) to which 50 μl DNAse solution (1 mg/ml in 0.15 M NaCl) was added. After an incubation of 90 min. at 37° C., the reaction was terminated by adding 1.45 g NaCl, followed by a further incubation at 58° C. for 15 min. The reaction mixture was cooled on ice and dialysed at 4° C. for respectively 1.5 and 2 hours against 1.5 l of 0.2 M KCl, and twice against 1.5 l of 0.01 M KCl for 1.5 and 2 h respectively. The mixture was aliquoted and stored at −20° C. Histones (1 mg/ml, type II-A, supplier: Sigma) were biotinylated using the biotinylation kit of Amersham and stored aliquoted at −20° C. A stock solution of 100 mg/ml SPA poly(vinyl toluene) (PVT) beads (supplier: Amersham) was made in PBS. A stock solution of [^3H]-NAD^+ was made by adding 120 μl of [^3H]-NAD^+ (0.1 mCi/ml, supplier: NEN) to 6 ml incubation buffer (50 mM Tris/HCl, pH 8; 0.2 mM DTT; 4 mM MgCl2). A solution of 4 mM NAD^+ (supplier: Roche) was made in incubation buffer (from a 100 mM stock solution in water stored at −20° C.). The PARP-1 enzyme was produced using art known techniques, i.e. cloning and expression of the protein starting from human liver cDNA. Information concerning the used protein sequence of the PARP-1 enzyme including literature references can be found in the Swiss-Prot database under primary accession number P09874. Biotinylated histones and PVT-SPA beads were mixed and pre-incubated for 30 min. at room temperature. PARP-1 enzyme (concentration was lot dependent) was mixed with the nicked DNA and the mixture was pre-incubated for 30 min. at 4° C. Equal parts of this histones/PVT-SPA beads solution and PARP-1 enzyme/DNA solution were mixed and 75 μl of this mixture together with 1 μl of compound in DMSO and 25 μl of [^3H]-NAD^+ was added per well into a 96-well microtiterplate. The final concentrations in the incubation mixture were 2 μg/ml for the biotinylated histones, 2 mg/ml for the PVT-SPA beads, 2 μg/ml for the nicked DNA and between 5-10 μg/ml for the PARP-1 enzyme. After incubation of the mixture for 15 min. at room temperature, the reaction was terminated by adding 100 μl of 4 mM NAD^+ in incubation buffer (final concentration 2 mM) and plates were mixed.
The beads were allowed to sediment for at least 15 min. and plates transferred to a TopCountNXT™ (Packard) for scintillation counting, values were expressed as counts per minute (cpm). For each experiment, controls (containing PARP-1 enzyme and DMSO without compound), a blank incubation (containing DMSO but no PARP-1 enzyme or compound) and samples (containing PARP-1 enzyme and compound dissolved in DMSO) were run in parallel. All compounds tested were dissolved and eventually further diluted in DMSO. […] In each test, the blank value was subtracted from both the control and the sample values. The control sample represented maximal PARP-1 enzyme activity. For each sample, the amount of cpm was expressed as a percentage of the mean cpm value of the controls. When appropriate, IC50-values (concentration of the drug, needed to reduce the PARP-1 enzyme activity to 50% of the control) were computed using linear interpolation between the experimental points just above and below the 50% level. […]

Data set [4] addresses T1, PARP-1 enzyme. Put plainly: In vitro filtration assay for PARP-1 inhibitory activity. The format is biochemical. The note with it: nicked DNA activated PARP-1, [32P]-NAD, histones; read-out: In vitro filtration assay pIC50 (converted). Here is the method:
In Vitro Filtration Assay for PARP-1 Inhibitory Activity
Compounds of the present invention were tested in an in vitro filtration assay assessing PARP-1 activity (triggered in the presence of nicked DNA) by means of its histone poly (ADP-ribosyl)ation activity using [^32P]-NAD as ADP-ribosyl donor. The radioactive ribosylated histones were precipitated by trichloroacetic acid (TCA) in 96-well filterplates and the incorporated [^32P] measured using a scintillation counter A mixture of histones (stock solution: 5 mg/ml in H2O), NAD^+ (stock solution: 100 mM in H2O), and [^32P]-NAD^+ in incubation buffer (50 mM Tris/HCl, pH 8; 0.2 mM DTT; 4 mM MgCl2) was made. A mixture of the PARP-1 enzyme (5-10 μg/ml) and nicked DNA was also made. The nicked DNA was prepared as described in the in vitro SPA for PARP-1 inhibitory activity. Seventy-five μl of the PARP-1 enzyme/DNA mixture together with 1 μl of compound in DMSO and 25 μl of histones-NAD^+/[^32P]-NAD^+ mixture was added per well of a 96-well filterplate (0.45 μm, supplier Millipore). The final concentrations in the incubation mixture were 2 μg/ml for the histones, 0.1 mM for the NAD^+, 200 μM (0.5 μC) for the [^32P]-NAD^+ and 2 μg/ml for the nicked DNA. Plates were incubated for 15 min. at room temperature and the reaction was terminated by the addition of 10 μl ice cold 100% TCA followed by the addition of 10 μl ice-cold BSA solution (1% in H2O). The protein fraction was allowed to precipitate for 10 min. at 4° C. and plates were vacuum filtered. The plates were subsequently washed with, for each well, 1 ml of 10% ice cold TCA, 1 ml of 5% ice cold TCA and 1 ml of 5% TCA at room temperature. Finally 100 μl of scintillation solution (Microscint 40, Packard) was added to each well and the plates were transferred to a TopCountNXT™ (supplier: Packard) for scintillation counting and values were expressed as counts per minute (cpm). For each experiment, controls (containing PARP-1 enzyme and DMSO without compound), a blank incubation (containing DMSO but no PARP-1 enzyme or compound) and samples (containing PARP-1 enzyme and compound dissolved in DMSO) were run in parallel. All compounds tested were dissolved and eventually further diluted in DMSO. In first instance, compounds were tested at a concentration of 10^−5M. […] In each test, the blank value was subtracted from both the control and the sample values. The control sample represented maximal PARP-1 enzyme activity. For each sample, the amount of cpm was expressed as a percentage of the mean cpm value of the controls. When appropriate, IC50-values (concentration of the drug, needed to reduce the PARP-1 enzyme activity to 50% of the control) were computed using linear interpolation between the experimental points just above and below the 50% level. Herein the effects of test compounds are expressed as pIC50 (the negative log value of the IC50-value). As a reference compound, 4-amino-1,8-naphthalimide was included to validate the filtration assay.

T1 sequence (P09874 whole entry): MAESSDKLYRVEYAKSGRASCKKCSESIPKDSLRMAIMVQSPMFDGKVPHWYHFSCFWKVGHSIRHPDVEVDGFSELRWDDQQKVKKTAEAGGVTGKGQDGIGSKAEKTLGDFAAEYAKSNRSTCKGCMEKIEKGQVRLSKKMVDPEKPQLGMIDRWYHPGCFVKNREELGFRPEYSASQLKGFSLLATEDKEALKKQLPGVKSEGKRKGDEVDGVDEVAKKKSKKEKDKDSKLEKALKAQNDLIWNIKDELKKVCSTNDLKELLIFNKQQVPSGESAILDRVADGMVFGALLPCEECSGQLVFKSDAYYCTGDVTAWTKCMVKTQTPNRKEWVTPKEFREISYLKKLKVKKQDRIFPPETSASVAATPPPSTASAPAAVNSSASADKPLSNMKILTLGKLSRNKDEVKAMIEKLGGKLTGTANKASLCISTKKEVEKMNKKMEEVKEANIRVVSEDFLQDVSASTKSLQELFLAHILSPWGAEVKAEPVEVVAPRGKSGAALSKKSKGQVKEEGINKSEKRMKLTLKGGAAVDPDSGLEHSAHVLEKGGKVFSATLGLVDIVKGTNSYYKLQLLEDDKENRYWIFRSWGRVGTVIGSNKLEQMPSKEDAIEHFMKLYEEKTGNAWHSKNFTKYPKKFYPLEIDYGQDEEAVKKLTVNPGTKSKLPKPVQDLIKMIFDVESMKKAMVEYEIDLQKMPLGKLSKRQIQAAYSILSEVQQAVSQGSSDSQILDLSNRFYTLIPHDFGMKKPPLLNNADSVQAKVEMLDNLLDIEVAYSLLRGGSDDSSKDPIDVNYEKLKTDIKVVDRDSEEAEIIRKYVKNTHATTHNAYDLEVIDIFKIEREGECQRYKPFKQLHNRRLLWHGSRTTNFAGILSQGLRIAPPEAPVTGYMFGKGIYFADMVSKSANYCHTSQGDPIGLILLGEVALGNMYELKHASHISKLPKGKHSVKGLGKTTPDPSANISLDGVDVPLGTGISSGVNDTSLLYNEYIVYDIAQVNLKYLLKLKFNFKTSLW

With `Oc1cccc2c(O)nccc12` [1,5-dihydroxyisoquinoline], the “reduction in infarct size” value in data set [1] (single injection 1 mg/kg) is given as 38-48%.

As for `NC(=O)c1cccc(N)c1` [3-amino-benzamide], in data set [1] (single injection 10 mg/kg, one minute before occlusion or one minute before reperfusion), the “reduction in infarct size in the heart” value is given as 32-42%. Also, the “effect on inflammatory response in colitis” value in data set [2] is reported as “reduced the inflammatory response”.

Regarding `CCc1cc2cc(C(CCN3CCN(C)CC3)C3CCCCC3)ccc2[nH]c1=O` (stereo not drawn) [Co. No. 5], the melting point was 181 °C. For the same compound, the IC50 in data set [3] is 507 nM. Besides, in data set [4], the IC50 was 5060 nM.

In turn, `CCc1cc2cc(C(C3CCCCC3)N3CCC(O)(c4cncn4C)CC3)ccc2[nH]c1=O` (stereo not drawn) [Co. No. 6] registered a melting point of 194 °C. Besides, the IC50 in data set [3] is 508 nM. For the same compound, in data set [4], the IC50 is 1350 nM.

In turn, `CCc1cc2cc(C(OCCN(C)C)C3CCCCC3)ccc2[nH]c1=O` (stereo not drawn) [Co. No. 8] had a melting point of 122 °C. Also, the IC50 in data set [3] is 873 nM. Also, in data set [4], the IC50 is 6730 nM.

In turn, `CCc1cc2cc([C@@H](OCCN(C)C)C3CCCCC3)ccc2[nH]c1=O` [Co. No. 9] returned a melting point of 115 °C. In addition, the IC50 in data set [3] is 614 nM. The IC50 in data set [4] was 4380 nM.

For `CCc1cc2cc(C(C3CC=CCC3)N3CCC(O)CC3)ccc2[nH]c1=O` (stereo not drawn) [Co. No. 11], the melting point turned out to be 196 °C. The IC50 in data set [3] was 184 nM. Moreover, in data set [4], the IC50 was 785 nM.

These data come from patent US7652014B2, “Substituted 6-cyclohexylalkyl substituted 2-quinolinones and 2-quinoxalinones as poly(ADP-ribose) polymerase inhibitors” (Janssen Pharmaceutica, priority 2003, dated 2010).
